Test results from US9562031B1, “Phenethyldihydrobenzodioxolones and methods of use” (Sequoia Sciences, Inc., priority 2015, dated 2017).
pIC50: −log10 of the molar value. Read-outs that look alike come from different tables or passages of the source. Values belong to the compound of their own block, whether it stands above or below them.

Legend:
[1] = system: M14 (amelanotic melanoma) cells; assay: antiproliferation assay (72 h, CELLTITER 96), M14; assay type: cell-based, human
Description: (§1) All of the compounds shown in Table 3-Table 8 below were prepared synthetically as described in EXAMPLE I. The compounds were tested for their ability to inhibit the proliferation of human cancer cells in vitro as described in the following paragraph. Table 3-Table 8 list the IC50 values in the M14 and NCI-H460 human cancer cell lines. IC50 is defined as the concentration of compound necessary to achieve 50% of the maximum growth inhibition.
(§2) For the antiproliferation assay, NCI-H460 (large cell lung carcinoma) or M14 (amelanotic melanoma) cells were grown in RPMI-1640 with 10% FBS supplemented with L-glutamine and HEPES. Cells were seeded into 96-well plates at 5×10^2 to 5×10^4 cells/well and allowed to adhere overnight; the medium was then removed. A stock solution of test compound in DMSO was diluted in medium to generate a series of working solutions. Aliquots (100 μl) of the working solutions were then added to the appropriate test wells to expose cells to the final concentrations of compound in a total volume of 100 μl. Seven different concentrations were tested, with 2-5 wells per concentration. Camptothecin was used as a positive control; wells containing vehicle without compound were used as negative controls. Plates were kept for 72 h in a 37° C., 5% CO2 incubator. After incubation, viable cells were detected with the CELLTITER 96 AQueous Non-Radioactive Cell Proliferation Assay (Promega), and IC50 values were determined using GraphPad Prism 5 software.

[2] = system: NCI-H460 (large cell lung carcinoma) cells; assay: antiproliferation assay (72 h, CELLTITER 96), NCI-H460; assay type: cell-based, human; conditions: read-out: NCI-H460 IC50
Description: as §1, §2

[3] = Homo sapiens, NCI-H460, Table 7
[4] = Homo sapiens, NCI-H460, Table 8
[5] = Homo sapiens, NCI-H460, Table 3
[6] = Homo sapiens, NCI-H460, Table 4
[7] = Homo sapiens, NCI-H460, Table 5

Compound: C=CC[C@H]1C[C@]2(C(C)Cc3cc(C(N)=O)c(OC)cc3F)OCOC2=CC1=O (stereo partly drawn) [Compound 11, 5-(2-((3aR,5S)-5-allyl-6-oxo-3a,4,5,6-tetrahydrobenzo[d][1,3]dioxol-3a-yl)propyl)-4-fluoro-2-methoxybenzamide]
pIC50 ([1]; Homo sapiens, Table 3): 8.40
pIC50 [2, 5]: 6.48

Compound: C=CCNc1cc(CC(C)[C@]23C[C@H](CC=C)C(=O)C=C2OCO3)ccc1OC (stereo partly drawn) [Compound 36, (6S,7aR)-6-allyl-7a-(1-(3-(allylamino)-4-methoxyphenyl)propan-2-yl)-7,7a-dihydrobenzo[d][1,3]dioxol-5(6H)-one]
pIC50 ([1]; Homo sapiens, Table 4): 6.14
pIC50 [2, 6]: 5.72

Compound: C=CC[C@H]1C[C@]2([C@@H](C)Cc3cc(O)c(OC)cc3F)OCOC2=CC1=O [Compound 5, (6S,7aR)-6-allyl-7a-((S)-1-(2-fluoro-5-hydroxy-4-methoxyphenyl)propan-2-yl)-7,7a-dihydrobenzo[d][1,3]dioxol-5(6H)-one]
pIC50 ([1]; Homo sapiens, Table 3): 8.05
pIC50 [2, 5]: 7.48

Compound: C=CC[C@H]1C[C@]2(C(C)Cc3ccc(OCC)cc3)OCOC2=CC1=O (stereo partly drawn) [Compound 40, (6S,7aR)-6-allyl-7a-(1-(4-ethoxyphenyl)propan-2-yl)-7,7a-dihydrobenzo[d][1,3]dioxol-5(6H)-one]
pIC50 ([1]; Homo sapiens, Table 5): 6.19
pIC50 [2, 7]: 5.70

Compound: C=CC[C@H]1C[C@]2([C@@H](C)Cc3ccc(OC)cc3)OCOC2=CC1=O [Compound 25, (6S,7aR)-6-allyl-7a-((S)-1-(4-methoxyphenyl)propan-2-yl)-7,7a-dihydrobenzo[d][1,3]dioxol-5(6H)-one]
pIC50 ([1]; Homo sapiens, Table 4): 7.21
pIC50 [2, 6]: 7.06

Compound: C=CC[C@H]1C[C@]2([C@@H](C)Cc3ccc(OC)c(C#N)c3)OCOC2=CC1=O [Compound 31, 5-((S)-2-((3aR,5S)-5-allyl-6-oxo-3a,4,5,6-tetrahydrobenzo[d][1,3]dioxol-3a-yl)propyl)-2-methoxybenzonitrile]
pIC50 ([1]; Homo sapiens, Table 4): 6.74
pIC50 [2, 6]: 6.47

Compound: C=CC[C@H]1C[C@]2([C@@H](C)Cc3ccc(OC)c(NC(C)=O)c3)OCOC2=CC1=O [Compound 35, N-(5-((S)-2-((3aR,5S)-5-allyl-6-oxo-3a,4,5,6-tetrahydrobenzo[d][1,3]dioxol-3a-yl)propyl)-2-methoxyphenyl)acetamide]
pIC50 ([1]; Homo sapiens, Table 4): 7.07
pIC50 [2, 6]: 6.51

Compound: C=CC[C@H]1C[C@]2([C@@H](C)Cc3cc(C#N)c(OC)cc3F)OCOC2=CC1=O [Compound 14, 5-((S)-2-((3aR,5S)-5-allyl-6-oxo-3a,4,5,6-tetrahydrobenzo[d][1,3]dioxol-3a-yl)propyl)-4-fluoro-2-methoxybenzonitrile]
pIC50 ([1]; Homo sapiens, Table 3): 7.43
pIC50 [2, 5]: 6.82

Compound: C=CC[C@H]1C[C@]2([C@@H](C)Cc3cc(C)c(OC)cc3F)OCOC2=CC1=O [Compound 8, (6S,7aR)-6-allyl-7a-((S)-1-(2-fluoro-4-methoxy-5-methylphenyl)propan-2-yl)-7,7a-dihydrobenzo[d][1,3]dioxol-5(6H)-one]
pIC50 ([1]; Homo sapiens, Table 3): 6.64
pIC50 [2, 5]: 6.19

Compound: C=CC[C@H]1C[C@]2([C@@H](C)Cc3ccc(OC)c(C(=O)NC)c3)OCOC2=CC1=O [Compound 30, 5-((S)-2-((3aR,5S)-5-allyl-6-oxo-3a,4,5,6-tetrahydrobenzo[d][1,3]dioxol-3a-yl)propyl)-2-methoxy-N-methylbenzamide]
pIC50 ([1]; Homo sapiens, Table 4): 5.85
pIC50 [2, 6]: 5.96

The next lines start with the values.

pIC50 ([1]; Homo sapiens, Table 7): 6.68
pIC50 [2, 3]: 6.60
Compound: C/C=C/C[C@H]1C[C@]2([C@@H](C)Cc3ccc(OC)cc3F)OCOC2=CC1=O [Compound 67, (6S,7aR)-6-((E)-but-2-en-1-yl)-7a-((S)-1-(2-fluoro-4-methoxyphenyl)propan-2-yl)-7,7a-dihydrobenzo[d][1,3]dioxol-5(6H)-one]

pIC50 ([1]; Homo sapiens, Table 8): 6.74
pIC50 [2, 4]: 6.48
Compound: C=CC[C@H]1C[C@]2([C@@H](C)Cc3ccc(OC)nc3)OCOC2=CC1=O [Compound 86, (6S,7aR)-6-allyl-7a-((S)-1-(6-methoxypyridin-3-yl)propan-2-yl)-7,7a-dihydrobenzo[d][1,3]dioxol-5(6H)-one]

pIC50 ([1]; Homo sapiens, Table 5): < 4.70
pIC50 [2, 7]: < 4.70
Compound: C=CC[C@H]1C[C@]2([C@@H](C)Cc3ccc(OC(C)=O)cc3)OCOC2=CC1=O [Compound 100, 4-((S)-2-((3aR,5S)-5-allyl-6-oxo-3a,4,5,6-tetrahydrobenzo[d]dioxol-3a-yl)propyl)phenyl acetate]

pIC50 ([1]; Homo sapiens, Table 5): 7.19
pIC50 [2, 7]: 6.52
Compound: C=CC[C@H]1C[C@]2([C@H](C)Cc3ccc(NC)c(F)c3)OCOC2=CC1=O [Compound 43, (6S,7aR)-6-allyl-7a-((R)-1-(3-fluoro-4-(methylamino)phenyl)propan-2-yl)-7,7a-dihydrobenzo[d][1,3]dioxol-5(6H)-one]

pIC50 ([1]; Homo sapiens, Table 6): 5.29
pIC50 ([2]; Homo sapiens, NCI-H460, Table 6): 5.01
Compound: C=CC[C@H]1C[C@]2([C@@H](C)Cc3ccccc3)OCOC2=CC1=O [Compound 49]

pIC50 ([1]; Homo sapiens, Table 5): 7.80
pIC50 [2, 7]: 7.17
Compound: C=CC[C@H]1C[C@]2([C@H](C)Cc3cc(F)c(NC)cc3F)OCOC2=CC1=O (relative stereo) [Compound 44, 6-allyl-7a-(1-(2,5-difluoro-4-(methylamino)phenyl)propan-2-yl)-7,7a-dihydrobenzo[d][1,3]dioxol-5(6H)-one]

pIC50 ([1]; Homo sapiens, Table 7): 6.52
pIC50 [2, 3]: 6.35
Compound: COc1cc(F)c(C[C@H](C)[C@]23C[C@H](CCSC)C(=O)C=C2OCO3)cc1O [Compound 76, (6R,7aR)-7a-((S)-1-(2-fluoro-5-hydroxy-4-methoxyphenyl)propan-2-yl)-6-(2-(methylthio)ethyl)-7,7a-dihydrobenzo[d][1,3]dioxol-5(6H)-one]

pIC50 ([1]; Homo sapiens, Table 7): 6.54
pIC50 [2, 3]: 6.36
Compound: CC[C@H]1C[C@]2([C@H](C)Cc3cc(F)c(OC)cc3F)OCOC2=CC1=O [Compound 58]

pIC50 ([1]; Homo sapiens, Table 4): < 4.70
pIC50 [2, 6]: < 4.70
Compound: C=CC[C@H]1C[C@]2([C@H](C)Cc3ccc(OC)c(N(C)C)c3)OCOC2=CC1=O [Compound 97, (6S,7aR)-6-allyl-7a-((R)-1-(3-(dimethylamino)-4-methoxyphenyl)propan-2-yl)-7,7a-dihydrobenzo[d][1,3]dioxol-5(6H)-one]

pIC50 ([1]; Homo sapiens, Table 4): < 4.70
pIC50 [2, 6]: < 4.70
Compound: C=CCC1C[C@]2([C@@H](C)Cc3ccc(OC)c(C(C)=O)c3)OCOC2=CC1=O (stereo partly drawn) [Compound 96, (7aR)-7a-((S)-1-(3-acetyl-4-methoxyphenyl)propan-2-yl)-6-allyl-7,7a-dihydrobenzo[d][1,3]dioxol-5(6H)-one]

pIC50 ([1]; Homo sapiens, Table 8): 6.20
pIC50 [2, 4]: 6.14
Compound: C=CC[C@H]1C[C@]2([C@@H](C)Cc3ccc(OC)c4occc34)OCOC2=CC1=O [Compound 85, (6S,7aR)-6-allyl-7a-((S)-1-(7-methoxybenzofuran-4-yl)propan-2-yl)-7,7a-dihydrobenzo[d][1,3]dioxol-5(6H)-one]

pIC50 ([1]; Table 5): < 4.70
pIC50 ([2]; Table 5): < 4.70
Compound: C=CC[C@H]1C[C@]2([C@@H](C)Cc3ccc(NC(C)=O)c(F)c3)OCOC2=CC1=O [Compound 102, N-(4-((S)-2-((3aR,55)-5-allyl-6-oxo-3a,4,5,6-tetrahydrobenzo[d][1,3]dioxol-3a-yl)propyl)-2-fluorophenyl)acetamide]

pIC50 ([1]; Homo sapiens, Table 7): 6.54
pIC50 [2, 3]: 6.89
Compound: C=C[C@H](C)[C@H]1C[C@]2([C@@H](C)Cc3ccc(OC)cc3F)OCOC2=CC1=O [Compound 110, (6R,7aR)-6-((S)-but-3-en-2-yl)-7a-((S)-1-(2-fluoro-4-methoxyphenyl)propan-2-yl)-7,7a-dihydrobenzo[d][1,3]dioxol-5(6H)-one]

pIC50 ([1]; Table 4): < 4.70
pIC50 ([2]; Table 4): < 4.70
Compound: (6S,7aR)-6-allyl-7a-((S)-1-(2-fluoro-4-methoxy-5-morpholinophenyl)propan-2-yl)-7,7a-dihydrobenzo[d][1,3]dioxol-5(6H)-one [Compound 98]
